In test [1] the test system is pressor response to AII. In words: Assay C: In vivo intragastric pressor assay response for AII antagonists. The note with it: dose not given, intraduodenally. The arrangement: species or system rat.
In test [2] the test system is pressor response to AII. The test is described as above. More on the design: species or system rat. The note with it: dose not given, intragastrically. The procedure:
Assay C: In Vivo Intragastric Pressor Assay Response for All Antagonists
Male Sprague-Dawley rats weighing 225-300 grams were anesthetized with methohexital (30 mg/kg, i.p.) and catheters were implanted into the femoral artery and vein. The catheters were tunneled subcutaneously to exit dorsally, posterior to the head and between the scapulae. The catheters were filled with heparin (1000 units/ml of saline). The rats were returned to their cage and allowed regular rate chow and water ad libitum. After full recovery from surgery (3-4 days), rats were placed in Lucite holders and the arterial line was connected to a pressure transducer. Arterial pressure was recorded on a Gould polygraph (mmHg). Angiotensin II was administered as a 30 ng/kg bolus via the venous catheter delivered in a 50 μl volume with a 0.1 ml saline flush. The pressor response in mm Hg was measured by the difference from pre-injection arterial pressure to the maximum pressure achieved. The AII injection was repeated every 10 minutes until three consecutive injections yielded responses within 4 mmHg of each other. These three responses were then averaged and represented the control response to AII. The test compound was suspended in 0.5% methylcellulose in water and was administered by gavage. The volume administered was 2 ml/kg body weight. The standard dose was 3 mg/kg. Angiotensin II bolus injections were given at 30, 45, 60, 75, 120, 150, and 180 minutes after gavage. The pressor response to AII was measured at each time point. The rats were then returned to their cage for future testing. A minimum of 3 days was allowed between tests. Percent inhibition was calculated for each time point following gavage by the following formula: [(Control Response—Response at time point)/Control Response]×100.

The test system of another test is rabbit aortic rings. Description: Assay B: In vitro vascular smooth muscle response for AII, antagonist activity in aortic rings. The format is cell-based. To be noted: two determinations separated by /. As to the method:
Assay B: In Vitro Vascular Smooth Muscle-Response for AII
The compounds of the invention were tested for antagonist activity in rabbit aortic rings. Male New Zealand white rabbits (2-2.5 kg) were sacrificed using an overdose of pentobarbital and exsanguinated via the carotid arteries. The thoracic aorta was removed, cleaned of adherent fat and connective tissue and then cut into 3-mm ring segments. The endothelium was removed from the rings by gently sliding a rolled-up piece of filter paper into the vessel lumen. The rings were then mounted in a water-jacketed tissue bath, maintained at 37° C., between moveable and fixed ends of a stainless steel wire with the moveable end attached to an FT03 Grass transducer coupled to a Model 7D Grass Polygraph for recording isometric force responses. The bath was filled with 20 ml of oxygenated (95% oxygen/5% carbon dioxide) Krebs solution of the following composition (mM); 130 NaCl, 15 NaHCO3, […], 1.2 NaH2PO4, 1.2 MgSO4, 2.5 CaCl2, and 11.4 glucose. The preparations were equilibrated for one hour before approximately one gram of passive tension was placed on the rings. Angiotensin II concentration-response curves were then recorded (3×10^−10 to 1×10^−5 M). Each concentration of AII was allowed to elicit its maximal contraction, and then AII was washed out repeatedly for 30 minutes before rechallenging with a higher concentration of AII. Aorta rings were exposed to the test antagonist at 10^−5 M for 5 minutes before challenging with AII. Adjacent segments of the same aorta ring were used for all concentration-response curves in the presence of absence of the test antagonist. The effectiveness of the test compound was expressed in terms of pA2 values and were calculated according to H. O. Schild [Br. J. Pharmacol. Chemother., 2, 189-206 (1947)]. The pA2 value is the concentration of the antagonist which increases the EC50 value for AII by a factor of two. Each test antagonist was evaluated in aorta rings from two rabbits.

In test [3] the target is angiotensin II AT1 receptor. In words: Assay A: Angiotensin II binding activity, 125I-AII displacement in rat uterine membrane preparation. The procedure:
Assay A: Antiotensin II Binding Activity
Compounds of the invention were tested for ability to bind to the smooth muscle angiotensin II receptor using a rat uterine membrane preparation. […] The reaction was initiated by the addition of membrane protein and the mixture was incubated at 25° C. for 60 min. The incubation was terminated with ice-cold 50 mM Tris-HCl (pH 7.5) and the mixture was filtered to separate membrane-bound labelled peptide from the free ligand. The incubation tube and filter were washed with ice-cold buffer. Filters were assayed for radioactivity in a Micromedic gamma counter. Nonspecific binding was defined as binding in the presence of 10 μM of unlabelled AII. Specific binding was calculated as total binding minus nonspecific binding. […] Binding data were analyzed by a nonlinear least-squares curve fitting program.

The next test concerns myocardial fibrosis. The note with it: animal models, cited from earlier work.

Read-outs that look alike come from different tables or passages of the source.

Take `CCCCc1nn(CCCC)c(=O)n1Cc1ccc(-c2ccccc2C(=O)O)cc1` [Compound 78]: in the test on pressor response to AII [1], the “Assay C Duration” value was 60 to 100 min. As to `CCCCc1nn(CCCc2ccccc2)c(=O)n1Cc1ccc(-c2ccccc2-c2nn[nH]n2)cc1` [Compound 81], in the test with pressor response to AII [2], the “Assay C Duration” value was 180 min.

Regarding `CCCCc1nn(CC(=O)c2ccccc2)c(=O)n1Cc1ccc(-c2ccccc2-c2nn[nH]n2)cc1` [Compound 82], the “Assay C Duration” value with pressor response to AII [2] is 180 min. Take `CCCCc1nn(CC(O)c2ccccc2)c(=O)n1Cc1ccc(-c2ccccc2-c2nn[nH]n2)cc1` (stereo not drawn) [Compound 83]: the “Assay C Duration” value with pressor response to AII [2] is >180 min. The same measure, in the same setting: for `CCCCc1nn(CC(=O)OC(C)(C)C)c(=O)n1Cc1ccc(-c2ccccc2-c2nn[nH]n2)cc1` [Compound 84] the value was 30 min. Still for that read-out and setting: for `CCCCc1nn(CC(OCC(=O)O)c2ccccc2)c(=O)n1Cc1ccc(-c2ccccc2-c2nn[nH]n2)cc1` (stereo not drawn) [Compound 91] the value was >180 min. Regarding `CCCCc1nn(CC(C)c2cc(OC)ccc2OC)c(=O)n1Cc1ccc(-c2ccccc2-c2nn[nH]n2)cc1` (stereo not drawn) [Compound 98], the Kb in the test on rabbit aortic rings (Oryctolagus cuniculus, read-out: Assay B pA2 (converted)) was 7.94 nM. Moreover, the IC50 in test [3] is 22 nM. The compound `CCCCc1nc2c(OC(C)=O)nnc(OC(C)=O)c2n1Cc1ccc(-c2ccccc2-c2nnn[nH]2)cc1` [Compound 125] gave an IC50 in test [3] of 40 nM. Turning to `CCCCc1cn(CCc2ccccc2)c(=O)n1Cc1ccc(-c2ccccc2-c2nnn[nH]2)cc1` [Compound 133], in the test with pressor response to AII [2], the “Assay C Duration” value lay in the range of 90 to 120 min. For the compound `CCCCc1nc(CCCC)n(Cc2ccc(-n3c(Cl)cc(Cl)c3-c3nnn[nH]3)cc2)n1` [Compound 143], the “Assay C Duration” value with pressor response to AII [1] worked out at 75 min. In the case of `CCCn1nc(C(F)F)nc1Cc1ccc(-c2ccccc2-c2nnn[nH]2)nc1` [Compound 162], the IC50 in test [3] was determined as 380 nM.

Take `CCCCn1nc(C(F)F)nc1Cc1ccc(-c2ccccc2-c2nnn[nH]2)nc1` [Compound 163]: the IC50 in test [3] was 420 nM.

With `CCCCc1nc(C(=O)N(C)C(C)(C)C)nn1Cc1ccc(-c2ccccc2-c2nnn[nH]2)nc1` [Compound 255], the “Assay B pA2” value with rabbit aortic rings is 7.46. With `CCCCc1nc(C(=O)NC)nn1Cc1ccc(-c2ccccc2-c2nnn[nH]2)nc1` [Compound 257], the “Assay B pA2” value with rabbit aortic rings came to 6.68.

Turning to `CCCCc1nc(C)nn1Cc1ccc(-c2ccccc2C(=O)O)cc1` [Compound 280], the “Assay B pA2” value in the test with rabbit aortic rings was found to be 6.35.

As for `CC(=O)S[C@@H]1CC2=CC(=O)CC[C@]2(C)[C@H]2CC[C@@]3(C)[C@@H](CC[C@@]34CCC(=O)O4)[C@H]12` [spironolactone], the “prevention of myocardial fibrosis” value with myocardial fibrosis was “prevents myocardial fibrosis in animal models”; with myocardial fibrosis (listed as Spironolactone), “prevent fibrosis in animal models irrespective of the development of left ventricular hypertrophy and the presence of hypertension”.
